Drawing on ChEMBL document CHEMBL3045865, “Synthesis and antitumor activity of new pyrido[2,3-d]pyrimidine derivatives” (2013), this text covers Activity for 14 compounds.

Active and inactive are the calls of the source. The calls are words filed in the database; no cut-off is given here.

A short description of test [1]: Induction of bleomycin-dependent DNA damage at 0.1 mg/ml after 1 hr.
Test [2] in a line: Antineoplastic activity against Mus musculus (mouse) EACs transplanted in Swiss albino mouse assessed as increase in life span at 20 mg/kg, ip after 9 days (reference value: 9.1%). The format is functional, Ehrlich. The conditions noted are these: route intraperitoneal.
Test [3] is described as follows: Antineoplastic activity against Mus musculus (mouse) EACs transplanted in Swiss albino Mus musculus (mouse) assessed as decrease in WBC level at 5 mg/kg, ip administered 9 days measured on day 14 (reference value: 38.6 10^3/mm3). To be noted: route intraperitoneal. The format is functional, Ehrlich.
Test [4] in a line: Antineoplastic activity against Mus musculus (mouse) EACs transplanted in Swiss albino Mus musculus (mouse) assessed as increase in hemoglobin level at 5 mg/kg, ip administered 9 days measured on day 14 (reference value: 8.7 g%). The test is classed as functional, Ehrlich. The conditions noted are these: route intraperitoneal.
A short description of test [5]: Antineoplastic activity against Mus musculus (mouse) EACs transplanted in Swiss albino Mus musculus (mouse) assessed as increase in hematocritis level at 5 mg/kg, ip administered 9 days measured on day 14 (reference value: 35.5 g%). The test is classed as functional, Ehrlich. To be noted: route intraperitoneal.
A short description of test [6]: Antineoplastic activity against Mus musculus (mouse) EACs transplanted in Swiss albino mouse assessed as increase in life span at 5 mg/kg, ip after 9 days (reference value: 9.1%). To be noted: route intraperitoneal. The format is functional, Ehrlich.
The test system of another test is Ehrlich. As to the kind of experiment: Antineoplastic activity against Mus musculus (mouse) EACs transplanted in Swiss albino mouse assessed as reduction in viable tumor cell count at 5 mg/kg, ip after 5 days by Giemsa staining. The format is functional, organism-based. More on the design: dose 5 mg/kg.

On to `COc1ccc(/C=N/NC(=O)c2cc(=O)[nH]c3[nH]c(=O)[nH]c(=O)c23)cc1`, for which, in test [1], the result was Active. Still for that read-out and setting: then `COc1ccc(N2CCN(CC(=O)NNC(=O)c3cc(=O)[nH]c4[nH]c(=O)[nH]c(=O)c34)CC2)cc1`, with “Active”; and `O=C(CCl)Sc1nnc(-c2cc(=O)[nH]c3[nH]c(=O)[nH]c(=O)c23)n1-c1ccc(F)cc1`, with “Active”. For the compound `O=C(N/N=C/c1cccc([N+](=O)[O-])c1)c1cc(=O)[nH]c2[nH]c(=O)[nH]c(=O)c12`, in test [1], the outcome was Active.

On to `O=c1cc(-c2nnc(S)n2-c2ccc(F)cc2)c2c(=O)[nH]c(=O)[nH]c2[nH]1`, for which the result in test [1] was Active. `O=c1[nH]cc(F)c(=O)[nH]1` [FLUOROURACIL]: the Activity in test [2] was found to be 16.7%; in test [3] it was 13.8 ×10³ /mm3; in test [4] it was 10 g%; in test [5], 42.3%.

For `O=C(NNC(=S)Nc1ccc(F)cc1)c1cc(=O)[nH]c2[nH]c(=O)[nH]c(=O)c12`, the outcome in test [1] was Active. On the same count and under the same terms, the entry for `O=C(CCl)NNC(=O)c1cc(=O)[nH]c2[nH]c(=O)[nH]c(=O)c12` is “Active”.

With `NNC(=O)c1cc(=O)[nH]c2[nH]c(=O)[nH]c(=O)c12`, the outcome in test [1] was Active. For `O=c1cc(-c2nnc(S)n2-c2ccccc2)c2c(=O)[nH]c(=O)[nH]c2[nH]1`, the result (in test [1]; with Ehrlich) was Active. Further, the Activity in test [6] came to 18.6%; in test [3] it was 11.2 ×10³ /mm3; in test [4], 11.7 g%; in test [5], 51.6%. For `O=C(CN1CCN(c2ccccc2)CC1)NNC(=O)c1cc(=O)[nH]c2[nH]c(=O)[nH]c(=O)c12`, the result in test [1] was Active. On the same count and under the same terms, then `O=C(CN1CCN(c2ccccc2)CC1)Sc1nnc(-c2cc(=O)[nH]c3[nH]c(=O)[nH]c(=O)c23)n1-c1ccc(F)cc1`, with “Active”; and `O=C(NNC(=S)Nc1ccccc1)c1cc(=O)[nH]c2[nH]c(=O)[nH]c(=O)c12`, with “Active”; and `COC(=O)c1cc(=O)[nH]c2[nH]c(=O)[nH]c(=O)c12`, with “Active”.
